From patent US20220370447A1, “METHOD OF TREATING HBV INFECTION USING A CORE PROTEIN ALLOSTERIC MODULATOR” (Hoffmann-La Roche Inc., priority 2019, published 2022)

Experiments:
Type in all cases: in vivo, human
[1] = Safety and tolerability in chronic hepatitis B patients
Description: (§1) Three clinical studies (Part 1 and 2 of YP39364 (NCT02952924), YP39406 (NCT03570658), and YP40218 (NCT03717064)) have been completed to characterize the safety, tolerability, pharmacokinetics (PK) and pharmacodynamics (PD) of Compound (I) in both healthy volunteers and CHB patients. […] Thus, there is an unmet medical need for a novel method of treatment with Compound (I) that could achieve a higher rate of functional cure with a finite treatment duration and excellent tolerability.
In this invention, methods of Compound (I) monotherapy and Compound (I) in combination with other anti-HBV agents for 12-144 weeks were developed. […] Comparing with current NUC treatment, the current finite treatment methods of this invention minimize the risk of drug resistance and decrease adverse effects of NUC treatment (e.g. the risk of renal injury, bone density loss and creatine kinase elevation, etc).

HBV [2] = assay: Completed clinical studies (YP39364 Part 1 and 2, YP39406, YP40218), four-week treatment, PD markers; conditions: four-week treatment with Compound (I)
Description: as §1

HBV [3] = assay: Treatment methods of the invention, Compound (I) monotherapy or combination for 12-144 weeks in patients infected with HBV
Description: Study population: patients infected with HBV (Terrault NA, Lok ASF, McMahon BJ, et al. Update on prevention, diagnosis, and treatment of chronic hepatitis B: AASLD 2018 hepatitis B guidance. Hepatology. 2018; 67:1560-1599.European Association for the Study of the Liver. EASL 2017 Clinical Practice Guidelines on the management of hepatitis B virus infection. J Hepatol. 2017; 67:370-398.).
General Methods: To explore the effects of Compound (I) on HBsAg loss or decline, Compound (I) is administered following the dose regimen listed in Table 1. The primary measure is the quantitative HBsAg decline or HBsAg loss (<0.05 IU/mL, measured by Elecsys® HBsAg II (Roche)®) at 24 weeks post treatment.

[4] = immune tolerant patients (HBV DNA levels elevated, ALT levels normal)

CCOC(=O)C1=C(CN2CCN3C(=O)N(CC(C)(C)C(=O)O)C[C@@H]3C2)NC(c2nccs2)=N[C@H]1c1cccc(F)c1C [Compound (I)]
Safety and tolerability [1]: safe and well tolerated
HBV DNA (short-term PD marker) (HBV [2]): robust decline
HBV RNA (short-term PD marker) (HBV [2]): robust decline
HBsAg decline (HBV [2]): significant decline of HBsAg has not been observed
hepatitis B surface antigen (HBsAg) decline or loss (HBV [3]; Compound (I) in combination with other anti-HBV agents for 12-144 weeks): significant hepatitis B surface antigen (HBsAg) decline or loss
HBV DNA decline (HBV [3]; [4]): robust HBV DNA and HBV RNA decline
HBV RNA decline (HBV [3]; [4]): robust HBV DNA and HBV RNA decline
